This experiment concerns the target Angiopoietin-1 receptor (Homo sapiens, UniProt Q02763). Put plainly: Homogeneous Time-Resolved Fluorescence (HTRF) Enzyme Assay. Here is the method: The assay uses purified GST-Tie-2 or GST-VEGFR2 interacting with biotinylated peptide substrates. HTRF is based on the proximity of europium cryptate (donor fluorophore)-labeled antiphosphotyrosine and streptavidin labeled with APC (allophycocyanin), which have been brought together by a binding reaction. […] The IC50 values for inhibitors were determined by a four-parameter sigmoidal curve fit.
In general terms: In TR-FRET formats the signal depends on donor and acceptor labels being close together.

Angiopoietin-1 receptor, sequence (Q02763 whole entry): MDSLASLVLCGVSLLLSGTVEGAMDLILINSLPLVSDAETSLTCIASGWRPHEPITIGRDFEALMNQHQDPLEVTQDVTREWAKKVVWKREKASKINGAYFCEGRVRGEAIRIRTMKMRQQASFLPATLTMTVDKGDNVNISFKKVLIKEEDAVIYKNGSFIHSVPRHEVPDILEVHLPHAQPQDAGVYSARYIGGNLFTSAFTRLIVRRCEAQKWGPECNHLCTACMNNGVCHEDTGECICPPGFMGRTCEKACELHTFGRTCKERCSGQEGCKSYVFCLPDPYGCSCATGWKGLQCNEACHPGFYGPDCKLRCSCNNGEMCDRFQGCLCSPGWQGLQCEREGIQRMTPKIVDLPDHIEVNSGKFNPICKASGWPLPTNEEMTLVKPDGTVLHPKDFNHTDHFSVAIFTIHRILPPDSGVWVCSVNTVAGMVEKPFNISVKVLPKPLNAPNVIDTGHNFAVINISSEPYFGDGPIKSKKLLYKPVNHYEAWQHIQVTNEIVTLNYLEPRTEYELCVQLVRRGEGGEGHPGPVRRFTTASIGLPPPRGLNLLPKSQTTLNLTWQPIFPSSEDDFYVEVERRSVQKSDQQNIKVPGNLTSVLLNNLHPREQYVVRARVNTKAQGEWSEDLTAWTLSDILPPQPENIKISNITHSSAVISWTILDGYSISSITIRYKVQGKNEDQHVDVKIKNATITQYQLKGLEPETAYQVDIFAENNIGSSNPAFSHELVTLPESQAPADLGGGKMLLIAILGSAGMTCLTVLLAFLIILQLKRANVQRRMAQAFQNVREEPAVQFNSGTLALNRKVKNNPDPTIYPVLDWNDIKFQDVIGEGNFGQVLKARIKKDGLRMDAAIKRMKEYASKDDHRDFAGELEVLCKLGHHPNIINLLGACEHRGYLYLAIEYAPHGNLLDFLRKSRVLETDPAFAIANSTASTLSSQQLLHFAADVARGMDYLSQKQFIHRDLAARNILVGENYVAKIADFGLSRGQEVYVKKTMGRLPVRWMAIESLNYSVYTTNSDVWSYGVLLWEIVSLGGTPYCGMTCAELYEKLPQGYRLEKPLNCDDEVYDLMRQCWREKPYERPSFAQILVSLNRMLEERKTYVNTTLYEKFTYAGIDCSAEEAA

As for `O=C(Nc1ccc(Oc2ccc3nc(NC(=O)c4ccccc4-n4cccc4)[nH]c3c2)cc1)Nc1cc(C(F)(F)F)ccc1F` [N-(6-(4-((2-Fluoro-5(trifluoromethyl)phenyl)aminocarbonylamino)phenoxy)-1H-benzimidazol-2-yl)-2-(1H-pyrrol-1-yl)benzamide], the IC50 (usually the concentration that gives 50% inhibition) came to 1300 nM.

Values taken from BindingDB's records for doi:10.1021/jm0611051 (Gsk, 2007).
